From the NIST ThermoML archive (doi:10.1021/je200575c)

Settings: Liquid, Vibrating tube method

CCCCCCCCCCCCCC [tetradecane]
Settings	mass density [kg/m3]
323.2 K, 1050 kPa	737
323.2 K, 2020 kPa	742
323.2 K, 3160 kPa	743
323.2 K, 4070 kPa	744
323.2 K, 5060 kPa	745
323.3 K, 5940 kPa	745
373.4 K, 2080 kPa	707
373.4 K, 4050 kPa	709
373.4 K, 6010 kPa	710
373.4 K, 7070 kPa	711
373.5 K, 2970 kPa	708
373.5 K, 5010 kPa	710
373.6 K, 1010 kPa	706
422.5 K, 1080 kPa	672
422.5 K, 2140 kPa	673
422.6 K, 3020 kPa	675
422.6 K, 4020 kPa	676
422.6 K, 5040 kPa	677
422.6 K, 6050 kPa	679
422.7 K, 7000 kPa	680
422.7 K, 8000 kPa	681
